Laboratory results: paper PMC7072329, “Discovery of Kynurenines Containing Oligopeptides as Potent Opioid Receptor Agonists” (Biomolecules, 2020)
Like-named read-outs stand apart in the source and are kept apart here. Where a SMILES comes first, the peptide text is derived from it. [ ]: non-standard residue; d: D form. Kyn = Nc1ccccc1C(=O)C[C@H](N)C(=O)O

Columns and labels:
CD-1 male mice [1] = experiment: formalin test; format: in vivo; details: s.c. in hind paw, 100 μg/20 μL, 15 min before formalin
Procedure: (§1) In our experiments, we used CD-1 male mice (Harlan, Italy, 25–30 g) maintained in colony, housed in cages (7 mice per cage) under standard light/dark cycle (from 7:00 a.m. to 7:00 p.m.), temperature (21 ± 1 °C) and relative humidity (60% ± 10%) for at least 1 week. Food and water were available ad libitum. The Service for Biotechnology and Animal Welfare of the Istituto Superiore di Sanità and the Italian Ministry of Health authorized the experimental protocol according to Legislative Decree 26/14.
DMSO was purchased from Merck (Rome, Italy). Peptides solutions were freshly prepared using saline containing 0.9% NaCl and DMSO in the ratio DMSO/saline 1:5 v/v every experimental day. These solutions were injected at a volume of 10 μL/mouse for intracerebroventricular (i.c.v.) administrations or at a volume of 20 μL/mouse for subcutaneous administrations.
In the formalin test, the injection of a dilute solution of formalin (1%, 20 μL/paw) into the dorsal surface of the mouse hind paw evoked biphasic nociceptive behavioral responses, such as licking, biting the injected paw, or both, occurring from 0 to 10 min after formalin injection (the early phase) and a prolonged phase, occurring from 15 to 40 min (the late phase). Before the test, mice were individually placed in a Plexiglas observation cage (30 × 14 × 12 cm) for one hour, to acclimatize to the testing environment. The total time the animal spent licking or biting its paw during the early and late phase of formalin-induced nociception was recorded.
Experimental data were expressed as mean ± s.e.m. In the tail flick test, significant differences among the groups were evaluated with two-way ANOVA followed by Sidak’s multiple comparisons test. Formalin test data were analyzed by using one-way ANOVA, followed by Holm–Sidak’s multiple comparisons test. […] Statistical significance was set at p < 0.05. The data and statistical analysis comply with the recommendations on experimental design and analysis in pharmacology.
Early phase represents the formalin-induced nociceptive behavior recorded from 0 to 10 min after formalin injection; late phase is for the formalin-induced nociceptive behavior recorded from 15 to 40 min after formalin injection. V is for vehicle-treated animals. Statistical analysis: one-way ANOVA followed by Holm–Sidak’s multiple comparisons test. ** is for p < 0.01 and *** is for p < 0.001 vs. V. n = 7.

CD-1 male mice [2] = experiment: tail flick test; format: in vivo; details: i.c.v., 10 μg/10 μL, 15 to 120 min
Procedure: as §1
DMSO was purchased from Merck (Rome, Italy). Peptides solutions were freshly prepared using saline containing 0.9% NaCl and DMSO in the ratio DMSO/saline 1:5 v/v every experimental day. […]
The tail flick latency was obtained using a commercial unit (Ugo Basile, Gemonio, Italy), consisting of an infrared radiant light source (100 W, 15 V bulb) focused onto a photocell utilizing an aluminum parabolic mirror. […] Radiant heat was focused 3–4 cm from the tip of the tail, and the latency (s) of the tail withdrawal to the thermal stimulus was recorded. […] The baseline latency was calculated as mean of three readings recorded before testing at intervals of 15 min and the time course of latency determined at 15, 30, 45, 60, 90, and 120 min after treatment. […]
Experimental data were expressed as mean ± s.e.m. […]

μ, δ, κ-receptors = system: μ, δ, κ-receptors; design: method as in PMID 25478797; details: cited from earlier work
NMDA receptor [3] = system: NMDA receptor; design: method as in earlier work; details: cited from earlier work
NMDA receptor [4] = experiment: [3H]MK-801 competition binding, rat brain membrane; details: read-out: Ki + S.E.M., displacement of [3H]MK-801
G-protein [5] = experiment: functional [35S]GTPγS binding, guinea pig brain membrane homogenates; format: biochemical; details: ligand alone
Procedure: (§2) Rats and guinea pigs were decapitated, and their brains were quickly removed. The brains were used for membrane preparation following the procedure reported by Benyhe for binding and [^35S]GTPγS binding experiments, in agreement with the protocol of Zádor et al..
(§3) Homogenization of brains was performed in 30 volumes (v/w) of ice-cold 50 mM Tris-HCl pH 7.4 buffer with a Teflon-glass Braun homogenizer at 1500 rpm. The centrifuge was settled at 18,000 rpm for 20 min at 4 °C, the resulting supernatant discarded, and the pellet taken up in the original volume of Tris-HCl buffer. Incubation of homogenate at 37 °C for 30 min was performed in a shaking water-bath. Five volumes of 50 mM Tris-HCl pH 7.4 buffer were used to suspend the final pellet at −80 °C. For the [^35S]GTPγS binding experiments, the brains were homogenized with a Dounce in 5 volumes (v/w) of ice-cold TEM (Tris-HCl, EGTA, MgCl2) at −80 °C. The protein content of the membrane preparation was determined by the method of Bradford, BSA being used as a standard.
(§4) The functional [^35S]GTPγS binding experiments were performed as previously described. Briefly the membrane homogenates were incubated at 30 °C for 60 min in Tris-EGTA buffer (pH 7.4) composed of 50 mM Tris-HCl, 1 mM EGTA, 3 mM MgCl2, 100 mM NaCl, containing 20 MBq/0.05 cm^3 [^35S]GTPγS (0.05 nM) and increasing concentrations (10^−10 to 10^−5 M) of ligands. The experiments were performed in the presence of excess GDP (30 μM) in a final volume of 1 mL. Total binding was measured in the absence of test compounds, non-specific binding was determined in the presence of 10 μM unlabeled GTPγS. The reaction was terminated by rapid filtration under vacuum and washed three times with 5 mL ice-cold 50 mM Tris-HCl (pH 7.4) buffer through Whatman GF/B glass fibers. The radioactivity of the filters was detected in an UltimaGold^TM MV aqueous scintillation cocktail with a Packard Tricarb 2300TR liquid scintillation counter.
(§5) Experimental data are presented as means ± S.E.M. Sigmoid dose-response curves were fitted with GraphPad Prism 5.0 (GraphPad Prism Software Inc., San Diego, CA, USA). An unpaired t-test with two-tailed p value was performed to determine the significance level. In the competition binding assays, the ‘One site competition’ fitting was used to establish the equilibrium binding affinity (Ki value).
Figure S3. The effect of novel oligopeptides on G-protein activity in [35S]GTPγS binding assays in the absence or presence of the selective MOR antagonist cyprodime (Cyp) and the selective DOR antagonist naltrindole (NTI) in rat brain membrane homogenates (Figure A) and the selective KOR antagonist norbinaltorphine (nor-BNI) in guinea pig brain membrane homogenates (Figure B). […]

G-protein [6] = experiment: functional [35S]GTPγS binding, rat brain membrane homogenates; format: biochemical; details: for Potency Log EC50 ± S.E.M. / Maximal Stimulation (Efficacy) Emax ± S.E.M.: dose-response curves; for Maximal Stimulation (Efficacy) Emax ± S.E.M.: basal = 100%; for Emax + S.E.M., Ligand: ligand alone, bar graphs Figure S3
Procedure: as §2, §3, §4, §5
[35S]GTPγS binding assay in rat brain membrane homogenates. Figure S2 represents the specific binding of [35S]GTPγS in percentage in presence of increasing concentrations (10-10 - 10^-5 M) of the indicated ligands. “Total” on the x-axis indicates the basal activity of the monitored G-protein, which is measured in the absence of the ligands and represents the total specific binding of [35S]GTPγS. The level of basal activity was defined as 100% and it is presented with a dotted line. Points represent means ± S.E.M. for at least three experiments […]
Figure S3. The effect of novel oligopeptides on G-protein activity in [35S]GTPγS binding assays in the absence or presence of the selective MOR antagonist cyprodime (Cyp) and the selective DOR antagonist naltrindole (NTI) in rat brain membrane homogenates (Figure A) and the selective KOR antagonist norbinaltorphine (nor-BNI) in guinea pig brain membrane homogenates (Figure B). The level of basal activity was defined as 100% and it is presented with a dotted line. Points represent means ± S.E.M. for at least three experiments performed

κ-opioid receptor = target: T1, κ-opioid receptor (Cavia porcellus, UniProt P41144); experiment: biochemical; format: binding; details: KOR; guinea pig brain membrane; from IC50 by Cheng–Prusoff; read-out: Ki + S.E.M., displacement of [3H]HS665
T1 construct: aliquots of frozen rat and guinea pig brain membrane homogenates were thawed and suspended in 50 mM Tris-HCl buffer; from tissue; host or cells: guinea pig brain membrane homogenate
T1 sequence (P41144 whole entry): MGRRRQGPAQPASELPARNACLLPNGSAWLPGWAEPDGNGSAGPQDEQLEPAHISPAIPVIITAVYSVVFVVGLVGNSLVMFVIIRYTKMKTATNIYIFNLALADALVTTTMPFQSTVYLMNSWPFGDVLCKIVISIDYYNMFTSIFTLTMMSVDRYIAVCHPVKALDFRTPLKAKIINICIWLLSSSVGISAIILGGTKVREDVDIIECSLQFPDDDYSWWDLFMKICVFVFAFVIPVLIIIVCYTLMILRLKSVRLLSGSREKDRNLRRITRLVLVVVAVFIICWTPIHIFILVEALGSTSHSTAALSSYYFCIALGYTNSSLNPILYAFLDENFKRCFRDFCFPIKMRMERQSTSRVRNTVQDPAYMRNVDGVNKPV

δ-opioid receptor = target: T2, δ-opioid receptor (Rattus norvegicus, UniProt P33533); experiment: biochemical; format: binding; details: DOR; rat brain membrane; from IC50 by Cheng–Prusoff; read-out: Ki + S.E.M., displacement of [3H]Ile5,6Delt II
T2 construct: aliquots of frozen rat and guinea pig brain membrane homogenates were thawed and suspended in 50 mM Tris-HCl buffer; from tissue; host or cells: Wistar rat brain membrane homogenate
T2 sequence (P33533 whole entry): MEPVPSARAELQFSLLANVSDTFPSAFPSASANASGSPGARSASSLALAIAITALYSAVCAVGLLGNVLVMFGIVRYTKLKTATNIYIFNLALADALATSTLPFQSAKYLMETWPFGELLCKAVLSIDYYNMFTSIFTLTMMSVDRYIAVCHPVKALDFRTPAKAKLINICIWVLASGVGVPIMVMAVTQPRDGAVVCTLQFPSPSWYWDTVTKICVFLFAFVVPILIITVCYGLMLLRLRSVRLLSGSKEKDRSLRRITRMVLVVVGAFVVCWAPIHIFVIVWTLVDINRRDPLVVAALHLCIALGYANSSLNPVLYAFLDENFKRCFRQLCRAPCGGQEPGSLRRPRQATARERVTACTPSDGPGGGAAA

[7] = design: method as in PMID 21598333; details: cited from earlier work
[8] = NMDA system, rat brain membrane, from IC50 by Cheng–Prusoff

Molecule | Ki (NMDA receptor [4]) | Emax + S.E.M., Ligand (G-protein [5]) | Potency Log EC50 ± S.E.M. (G-protein [6]) | Maximal Stimulation (Efficacy) Emax ± S.E.M. (G-protein [6]) | Emax + S.E.M., Ligand (G-protein [6]) | Ki (κ-opioid receptor) | other results
C[C@@H](NC(=O)[C@@H](N)Cc1ccc(O)cc1)C(=O)NCC(=O)N(C)[C@@H](Cc1ccccc1)C(=O)NCCO [DAMGO, Tyr-D-Ala-Gly-(NMe)Phe-Gly-ol, reference compound] |  |  |  |  |  |  | formalin-induced nociceptive behavior, early phase (CD-1 male mice [1]; 0 to 10 min): reduction of the nociceptive behavior both early and late; formalin-induced nociceptive behavior, late phase (CD-1 male mice [1]; 15 to 40 min): reduction of the nociceptive behavior both early and late; effect on time of response to thermal nociceptive stimuli (tail flick) (CD-1 male mice [2]): greatly increase the time of response to thermal nociceptive stimuli
CN(C)CCNC(=O)c1cc(=O)c2ccccc2[nH]1.Cl [KYNA1] |  |  |  |  |  |  | direct binding to μ, δ, κ-receptors in vitro (μ, δ, κ-receptors): did not directly bind
O=C(O)c1cc(=O)c2ccccc2[nH]1 [KYNA, kynurenic acid] |  |  |  |  |  |  | affinity for NMDA receptor (NMDA receptor [3]): micromolar affinity; Ki (NMDA receptor [4]; [8]): > 10 µM; direct binding to μ, δ, κ-receptors in vitro (μ, δ, κ-receptors): did not directly bind
Nc1ccccc1C(=O)C[C@H](N)C(=O)O [L-kyn, L-kynurenine, reference compound] |  |  |  |  |  |  | Ki (NMDA receptor [4]; [8]): > 10 µM
NC(=O)[C@H](Cc1ccccc1)NC(=O)[C@H](CC(=O)c1ccccc1N)NC(=O)[C@@H]1CCCN1C(=O)[C@@H](N)Cc1ccc(O)cc1 [Peptide K2] | > 10 µM | 92.8 ± 2.0% | −7.535 ± 0.354 | 121.6 ± 2.5% | 129.9 ± 8.2% | 1.043 ± 0.0003 µM | Ki (δ-opioid receptor): > 10 µM
NC(=O)[C@H](CC(=O)c1ccccc1N)NC(=O)[C@H](Cc1ccccc1)NC(=O)[C@@H]1CCCN1C(=O)[C@@H](N)Cc1ccc(O)cc1 [Peptide K3] (H-YPF[Kyn]-NH2) | > 10 µM | 95.2 ± 2.2% | −6.993 ± 0.422 | 114.0 ± 2.1% | 118.9 ± 3.0% | > 10 µM | Ki (δ-opioid receptor): 0.159 ± 0.0016 µM
COC(=O)[C@H](CC(=O)c1ccccc1N)NC(=O)[C@H](Cc1ccccc1)NC(=O)CNC(=O)[C@@H](C)NC(=O)[C@@H](N)Cc1ccc(O)cc1 [Peptide K4] (H-Y[dA]GF[Kyn]-OMe) | > 10 µM | 125.2 ± 2.0% | −6.073 ± 0.172 | 155.5 ± 4.8% | 160.6 ± 5.7% | > 10 µM | 
C[C@@H](NC(=O)[C@@H](N)Cc1ccc(O)cc1)C(=O)NCC(=O)N[C@@H](Cc1ccccc1)C(=O)N[C@@H](CC(=O)c1ccccc1N)C(=O)O [Peptide K5] (H-Y[dA]GF[Kyn]-OH) |  |  |  |  |  | > 10 µM | 
FP-Kyn-L-NH2 |  |  |  |  |  |  | concentration with opioid activity [7]: 10^−7 M
